Test results published in patent US11168102B1, “Bicyclic heteroaryl compounds and uses thereof” (Revolution Medicines, Inc., priority 2019, dated 2021).
Where two headings read alike, the source gives them in different places.

Test system: cellular pERK in PC-9 cells (EGFR Ex19Del)
Assay: Potency assay: pERK (AlphaLISA SureFire Ultra p-ERK1/2) in PC-9 cells
Type: cell-based
Conditions: read-out: SOS1 pERK IC50
[1] = Homo sapiens, PC-9, 1 h, PC-9 cells (EGFR Ex19Del), 1 hour incubation, AlphaLISA SureFire Ultra p-ERK1/2
[2] = PC-9 cells (EGFR Ex19Del), 1 hour incubation, AlphaLISA SureFire Ultra p-ERK1/2

SMILES	IC50 [1] [nM]	other results
CO[C@@]1(c2cc3c(N[C@H](C)c4cccc(C(F)F)c4F)ncnc3n(C)c2=O)CCN(C(C)=O)C(C)(C)C1 [Example 32-53]	199	–
COCCOC1(c2cc3c(N[C@H](C)c4cccc(C(F)F)c4F)ncnc3n(C)c2=O)CCS(=O)(=O)CC1 [Example 32-54]	40.2	–
COC1(c2cc3c(N[C@H](C)c4cccc(C(F)F)c4F)ncnc3n(C)c2=O)CCNC1 (stereo partly shown) [Example 32-55]	81.6	–
COC1(c2cc3c(N[C@H](C)c4cccc(C(F)F)c4F)ncnc3n(C)c2=O)CCOCC1 [Example 32-56]	93.7	–
C[C@@H](Nc1ncnc2c1cc(C1(OC3COC3)CCS(=O)(=O)CC1)c(=O)n2C)c1cccc(C(F)F)c1F [Example 32-57]	83.9	–
COC1(c2cc3c(N[C@H](C)c4cccc(C(F)F)c4F)nc(C)nc3n(C)c2=O)CCN(C(C)=O)C1 (stereo partly shown) [Example 32-58]	13.3	–
COC1(c2cc3c(N[C@H](C)c4cccc(C(F)F)c4F)ncnc3n(C)c2=O)CCC(S(C)(=O)=O)CC1 (stereo partly shown) [Example 32-59]	20.3	–
COC1(c2cc3c(N[C@H](C)c4cccc(C(F)F)c4F)ncnc3n(C)c2=O)CCN(C=O)CC1 [Example 32-60]	21.1	–
COC(=O)N1CCC(OC)(c2cc3c(N[C@H](C)c4cccc(C(F)F)c4F)ncnc3n(C)c2=O)CC1 [Example 32-61]	115	–
CO[C@]1(c2cc3c(N[C@H](C)c4cccc(C(F)F)c4F)nc(C)nc3n(C)c2=O)CCN(C(C)=O)C1 [Example 32-62]	10.8	–
COC1(c2cc3c(N[C@H](C)c4cccc(C(F)F)c4F)ncnc3n(C)c2=O)CCS(=O)(=O)C(C)C1 (stereo partly shown) [Example 32-64]	–	IC50 [2]: 154 nM
COC1(c2cc3c(N[C@H](C)c4cccc(C(F)F)c4F)ncnc3n(C)c2=O)CCS(=O)(=O)C(C)C1 (stereo partly shown) [Example 32-65]	–	IC50 [2]: 50.3 nM
COC1(c2cc3c(N[C@H](C)c4cccc(C(F)F)c4F)ncnc3n(C)c2=O)CCS(=O)(=O)C(C)C1 (stereo partly shown) [Example 32-66]	–	IC50 [2]: 127 nM
C[C@@H](Nc1ncnc2c1cc(C1CC3(C1)CS(=O)(=O)C3)c(=O)n2C)c1cccc(C(F)F)c1F [Example 33, 6-(4-{[(1R)-1-[3-(difluoromethyl)-2-fluorophenyl]ethyl]amino}-8-methyl-7-oxo-7H,8H-pyrido[2,3-d]pyrimidin-6-yl)-2λ^6-thiaspiro[3.3]heptane-2,2-dione]	145	–
C[C@@H](Nc1ncnc2c1cc(C1CCC3(CC1)CS(=O)(=O)C3)c(=O)n2C)c1cccc(C(F)F)c1F [Example 33-2]	71.6	–
C[C@@H](Nc1ncnc2c1cc(C1CCS(=O)(=O)CC1)c(=O)n2C)c1cccc2c1OCC2(F)F [Example 33-3]	34.8	–
C[C@@H](Nc1ncnc2c1cc(C1CCS(=O)(=O)CC1)c(=O)n2C)c1cccc(C(F)F)c1Cl [Example 33-4]	92.5	–
Cc1c(C(F)F)cccc1[C@@H](C)Nc1ncnc2c1cc(C1CCS(=O)(=O)CC1)c(=O)n2C [Example 33-5]	41.2	–
C[C@@H](Nc1ncnc2c1cc(C1CN(S(C)(=O)=O)C1)c(=O)n2C)c1cccc(C(F)F)c1F [Example 33-7]	521	–
CC1CC(c2cc3c(N[C@H](C)c4cccc(C(F)F)c4F)ncnc3n(C)c2=O)CCS1(=O)=O (stereo partly shown) [Example 33-8]	–	IC50 [2]: 54.7 nM

SMILES	IC50 [1] [nM]	other results
CC1CC(c2cc3c(N[C@H](C)c4cccc(C(F)F)c4F)ncnc3n(C)c2=O)CCS1(=O)=O (stereo partly shown) [Example 33-9]	–	IC50 [2]: 270 nM
C[C@@H](Nc1ncnc2c1cc(C1CCN(S(C)(=O)=O)C1)c(=O)n2C)c1cccc(C(F)F)c1F (stereo partly shown) [Example 33-10]	335	–
CC(=O)N1CC(c2cc3c(N[C@H](C)c4cccc(C(F)F)c4F)ncnc3n(C)c2=O)C1 [Example 33-11]	169	–
CC1CC(c2cc3c(N[C@H](C)c4cccc(C(F)F)c4F)ncnc3n(C)c2=O)CCS1(=O)=O (stereo partly shown) [Example 33-12]	–	IC50 [2]: 40.7 nM
CC1CC(c2cc3c(N[C@H](C)c4cccc(C(F)F)c4F)ncnc3n(C)c2=O)CCS1(=O)=O (stereo partly shown) [Example 33-13]	–	IC50 [2]: 21 nM
CC(=O)N1CC[C@@H](c2cc3c(N[C@H](C)c4cccc(C(F)F)c4F)ncnc3n(C)c2=O)C1 [Example 33-14]	271	–
CC(=O)N1CC[C@H](c2cc3c(N[C@H](C)c4cccc(C(F)F)c4F)ncnc3n(C)c2=O)C1 [Example 33-15]	113	–
C[C@@H](Nc1ncnc2c1cc(C1CS(=O)(=O)C1)c(=O)n2C)c1cccc(C(F)F)c1F [Example 33-16]	87.9	–
C[C@@H](Nc1ncnc2c1cc(C1CCS(=O)(=O)CC1)c(=O)n2C)c1cccc(-c2ccccc2CN)c1 [Example 33-17]	285	–
C[C@@H](Nc1ncnc2c1cc(C1CCS(=O)(=O)CC1)c(=O)n2C)c1ccc(-c2ccccc2CN)s1 [Example 33-18]	53.2	–
C[C@@H](Nc1ncnc2c1cc(C1CCS(=O)(=O)CC1)c(=O)n2C)c1ccc(-c2ccccc2CCN)s1 [Example 33-19]	182	–
C[C@@H](Nc1ncnc2c1cc(C1CCS(=O)(=O)C1)c(=O)n2C)c1cccc(C(F)F)c1F (stereo partly shown) [Example 33-20]	–	IC50 [2]: 52.7 nM
C[C@@H](Nc1ncnc2c1cc(C1CCS(=O)(=O)C1)c(=O)n2C)c1cccc(C(F)F)c1F (stereo partly shown) [Example 33-21]	–	IC50 [2]: 52.2 nM
C[C@@H](Nc1ncnc2c1cc(C1CCP(C)(=O)CC1)c(=O)n2C)c1cccc(C(F)F)c1F (stereo partly shown) [Example 33-22]	–	IC50 [2]: 1200 nM
C[C@@H](Nc1ncnc2c1cc(C1CCP(C)(=O)CC1)c(=O)n2C)c1cccc(C(F)F)c1F (stereo partly shown) [Example 33-23]	–	IC50 [2]: 85.4 nM
C[C@@H](Nc1ncnc2c1cc(C1CCS(=O)(=NC(N)=O)CC1)c(=O)n2C)c1cccc(C(F)F)c1F (stereo partly shown) [Example 33-24]	293	–
[2H]C(=O)N1CCC(c2cc3c(N[C@H](C)c4cccc(C(F)F)c4F)ncnc3n(C)c2=O)CC1 [Example 33-25]	73.8	–
C[C@@H](Nc1ncnc2c1cc(C1CCS(=N)(=O)CC1)c(=O)n2C)c1cccc(C(F)F)c1F (stereo partly drawn) [Example 35, (R)-4-((1-(3-(difluoromethyl)-2-fluorophenyl)ethyl)amino)-6-(1-imino-1-oxidohexahydro-1λ^6-thiopyran-4-yl)-8-methylpyrido[2,3-d]pyrimidin-7(8H)-one]	–	IC50 [2]: 127 nM
CC(=O)N1CCC(C#N)(c2cc3c(N[C@H](C)c4cccc(C(F)F)c4F)ncnc3n(C)c2=O)CC1 [Example 36, 1-acetyl-4-(4-{[(1R)-1-[3-(difluoromethyl)-2-fluorophenyl]ethyl]amino}-8-methyl-7-oxo-7H,8H-pyrido[2,3-d]pyrimidin-6-yl)piperidine-4-carbonitrile]	28.1	–
C[C@@H](Nc1ncnc2c1cc(C1(C#N)CCS(=O)(=O)CC1)c(=O)n2C)c1cccc(C(F)F)c1F [Example 36-1]	11.6	–

SMILES	IC50 [1] [nM]	other results
C[C@@H](Nc1ncnc2c1cc(C1(C#N)CCN(C)CC1)c(=O)n2C)c1cccc(C(F)F)c1F [Example 36-2]	–	IC50 (Homo sapiens, PC-9, 1 h): 63 nM
CC(=O)N1CC(C#N)(c2cc3c(N[C@H](C)c4cccc(C(F)F)c4F)ncnc3n(C)c2=O)C1 [Example 36-3]	181	–
C[C@@H](Nc1ncnc2c1cc(C1(C#N)CCN(S(C)(=O)=O)C1)c(=O)n2C)c1cccc(C(F)F)c1F (stereo partly shown) [Example 36-4]	91	–
CC(=O)N1CCC(C#N)(c2cc3c(N[C@H](C)c4cccc(C(F)F)c4F)ncnc3n(C)c2=O)C1 (stereo partly shown) [Example 36-5]	124	–
C[C@@H](Nc1ncnc2c1cc(C1(C#N)CC3(C1)CS(=O)(=O)C3)c(=O)n2C)c1cccc(C(F)F)c1F [Example 36-6]	33.3	–
C[C@@H](Nc1ncnc2c1cc(C1(C#N)CN(S(C)(=O)=O)C1)c(=O)n2C)c1cccc(C(F)F)c1F [Example 36-7]	772	–
C[C@@H](Nc1ncnc2c1cc(C1(C#N)CCC3(CC1)CS(=O)(=O)C3)c(=O)n2C)c1cccc(C(F)F)c1F [Example 36-8]	38.8	–
CC(=O)N1CCCC(C#N)(c2cc3c(N[C@H](C)c4cccc(C(F)F)c4F)ncnc3n(C)c2=O)CC1 (stereo partly shown) [Example 36-9]	86.9	–
CC(=O)N1CC[C@](C#N)(c2cc3c(N[C@H](C)c4cccc(C(F)F)c4F)ncnc3n(C)c2=O)C1 [Example 36-10]	44	–
CC(=O)N1CC[C@@](C#N)(c2cc3c(N[C@H](C)c4cccc(C(F)F)c4F)ncnc3n(C)c2=O)C1 [Example 36-11]	268	–
C[C@@H](Nc1ncnc2c1cc(C1(C#N)CCP(C)(=O)CC1)c(=O)n2C)c1cccc(C(F)F)c1F (stereo partly shown) [Example 36-12]	–	IC50 [2]: 448 nM
C[C@@H](Nc1ncnc2c1cc(C1(C#N)CCP(C)(=O)CC1)c(=O)n2C)c1cccc(C(F)F)c1F (stereo partly shown) [Example 36-13]	–	IC50 [2]: 81.2 nM
C[C@@H](Nc1ncnc2c1cc(C1(C#N)CCS(=O)(=O)C1)c(=O)n2C)c1cccc(C(F)F)c1F (stereo partly shown) [Example 36-14]	–	IC50 [2]: 207 nM
C[C@@H](Nc1ncnc2c1cc(C1(C#N)CCS(=O)(=O)C1)c(=O)n2C)c1cccc(C(F)F)c1F (stereo partly shown) [Example 36-15]	–	IC50 [2]: 58.9 nM
C[C@@H](Nc1ncnc2c1cc(C1(C#N)CCN(C3COC3)CC1)c(=O)n2C)c1cccc(C(F)F)c1F [Example 36-16]	–	IC50 (Homo sapiens, PC-9, 1 h): 222 nM
C[C@@H](Nc1ncnc2c1cc(C1(C)CCS(=O)(=O)CC1)c(=O)n2C)c1cccc(C(F)F)c1F [Example 37, 4-(4-{[(1R)-1-[3-(difluoromethyl)-2-fluorophenyl]ethyl]amino}-8-methyl-7-oxo-7H,8H-pyrido[2,3-d]pyrimidin-6-yl)-4-methyl-1λ^6-thiane-1,1-dione]	49.9	–
CC(=O)N1CCC(c2cc3c(N[C@H](C)c4cccc(C(F)F)c4C(F)F)ncnc3n(C)c2=O)CC1 [Example 38, 6-(1-acetylpiperidin-4-yl)-4-{[(1R)-1-[2,3-bis(difluoromethyl)phenyl]ethyl]amino}-8-methyl-7H,8H-pyrido[2,3-d]pyrimidin-7-one]	137	–
CC(=O)N1CCC(c2cc3c(N[C@H](C)c4cccc(C(F)F)c4CF)ncnc3n(C)c2=O)CC1 [Example 39, 6-(1-acetylpiperidin-4-yl)-4-{[(1R)-1-[3-(difluoromethyl)-2-(fluoromethyl)phenyl]ethyl]amino}-8-methyl-7H,8H-pyrido[2,3-d]pyrimidin-7-one]	1560	–
